Among the data in ChEMBL document CHEMBL1151272, “Anti-inflammatory acylphloroglucinol derivatives from Hops (Humulus lupulus)” (J Nat Prod, 2005) are IC50, AC50 and inhibition values, retold here.

The target in assay [1] is T1, Prostaglandin G/H synthase 1 (Ovis aries, UniProt P05979).
T1 sequence (P05979 whole entry): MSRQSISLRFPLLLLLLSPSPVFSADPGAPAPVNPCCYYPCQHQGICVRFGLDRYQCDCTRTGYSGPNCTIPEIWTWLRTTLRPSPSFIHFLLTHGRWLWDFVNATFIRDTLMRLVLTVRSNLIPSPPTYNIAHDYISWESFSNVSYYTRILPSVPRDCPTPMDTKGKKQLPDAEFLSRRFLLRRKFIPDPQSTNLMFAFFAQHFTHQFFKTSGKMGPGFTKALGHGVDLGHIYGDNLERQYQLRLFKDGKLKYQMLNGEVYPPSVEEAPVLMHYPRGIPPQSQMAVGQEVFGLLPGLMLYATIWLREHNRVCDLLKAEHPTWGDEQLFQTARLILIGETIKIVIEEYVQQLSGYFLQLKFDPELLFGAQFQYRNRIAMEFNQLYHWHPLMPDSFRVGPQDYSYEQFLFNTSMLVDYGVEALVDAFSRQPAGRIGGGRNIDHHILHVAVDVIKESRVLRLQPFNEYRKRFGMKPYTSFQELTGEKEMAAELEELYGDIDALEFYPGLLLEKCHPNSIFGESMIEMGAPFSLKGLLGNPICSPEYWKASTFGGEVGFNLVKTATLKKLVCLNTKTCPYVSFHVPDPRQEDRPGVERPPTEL
Briefly: Inhibition of sheep COX1 measured by oxygen consumption.

Assay [2] deals with T2, Prostaglandin G/H synthase 1 (Ovis aries) (UniProt P05979).
T2 sequence (whole entry): T1 sequence (P05979 whole entry)
Briefly: Inhibition of sheep COX1 measured by oxygen consumption at 100 uM.

For orientation: IC50 means the point on the concentration scale where inhibition reaches its midpoint. A high value points to lower potency. As usually defined, the inhibition is the percentage by which the read-out fell short of the control. Higher therefore signals a strong effect.

Turning to `CCC(C)C(=O)c1c(O)cc(O)cc1O[C@@H]1O[C@H](CO)[C@@H](O)[C@H](O)[C@H]1O` (stereo partly specified), inhibition in assay [1] was half-maximal at 131 µM (IC50).

Consider `Oc1cc(O)cc(O)c1` [PHLOROGLUCINOL], for which the AC50 entry in assay [1] is reported as “Active”.

The compound `CC(C)C(=O)c1c(O)cc(O)cc1O` [PHLOROISOBUTYROPHENONE] returned an IC50 in assay [1] of 3.8 µM. That is a single-digit micromolar value.

For `CC(C)C(=O)c1c(O)cc(O)cc1O[C@@H]1O[C@H](CO)[C@@H](O)[C@H](O)[C@H]1O`, inhibition in assay [1] was half-maximal at 23.7 µM (IC50).

In turn, `CC(C)CC(=O)c1c(O)cc(O)cc1O[C@@H]1O[C@H](CO)[C@@H](O)[C@H](O)[C@H]1O` gave an inhibition in assay [2] of 12%.

`CC(C)C(=O)c1c(O)cc(O[C@@H]2O[C@H](CO)[C@@H](O)[C@H](O)[C@H]2O)cc1O` had an IC50 in assay [1] of 58.7 µM. In other words, the double-digit micromolar range.
